1 compound from patent publication US8552035B2, “Phenanthrenone compounds, compositions and methods” (Pfizer Inc., priority 2008, dated 2013) can be followed below.

Usually ED50 stands for the midpoint of the dose-response relation. By inhibition is commonly meant the drop in the measured response relative to a control, in per cent.

Data set [1] concerns Mouse collagen-induced arthritis. The data set is described as follows: Therapeutic mouse collagen-induced arthritis (mCIA). The format is in vivo. The source says:
Mouse Collagen-induced arthritis is a commonly used chronic, preclinical model of rheumatoid arthritis in which joint swelling and bone destruction occur following immunization with type II collagen. Reduction of disease incidence and severity has been shown previously to be predictive of disease-modification and signs and symptoms mitigation, respectively, in a clinical setting.
In the therapeutic mCIA model, induction of disease incidence and severity was synchronized via LPS stimulation. Male DBA/J mice were immunized with 100 ug of bovine type II collagen (bCII) on day 0. All mice received an intraperitoneal injection of 20 μg of LPS on day 28 and disease was allowed to develop through day 34. At day 34, all mice had disease (incidence=100%) with an average severity score of seven. Dosing of compounds was initiated in the therapeutic mode on day 34 and continued through day 49. Different treatments were compared by measuring the decrease in incidence (i.e., resolution of disease) and the decrease in severity of paw swelling over time.
ED50 and ED80 values are obtained for the various parameters using four-parameter logistic fits of data. For each experiment/dose group, outliers are detected by calculating the number of standard deviations each mouse's value was from the mean of their group and then dividing by the standard deviation of the group. The means and standard deviations used in this calculation omitted the value being examined so that, if it were an outlier, it would have no influence. If the value being examined is more than 2.5 standard deviations from the mean, it was not used in the rest of the calculations.
Percent inhibition values are then calculated for each animal using the means of the vehicle and 10 mpk prednisone control groups. The individual mouse percent inhibition values are then fit to a four-parameter logistic model using the area under curve mean for each group. Since all four parameters are estimated and the lower plateau is not fixed at 0% and the upper plateau was not fixed at 100%, the ED50 and ED80 values are calculated by using an inverse calibration formula for a response equal to 50% or 80%. The designation “nd” means not determined.

Data set [2] has as its system IFNγ. The data set is described as follows: LPS-induced human whole blood, IFNγ release. The format is cell-based. Here is the method: Venous blood from human donors was collected as 10 ml aliquots in tubes containing sodium heparin (BD Vacutainer from Becton Dickinson and Company, Franklin Lakes, N.Y.). Blood was added to sterile polystyrene round bottom 96-well tissue culture plates (Corning Costar) at 180 Blood was placed in a humidified 37 C incubator with 5% CO2 while compounds were prepared (nearly 60 minutes).
Compounds were prepared from 10 mM stock solutions in dimethylsulfoxide (DMSO, Sigma-Aldrich). Stock compound was diluted in DMSO to give appropriate starting concentration then diluted serially 1/3 in DMSO (i.e. 15 μl compound+30 μl DMSO), followed by diluting each serial dilution 1/167 into vehicle solution (2% DMSO in phosphate buffered saline (Dulbecco's Phosphate Buffered Saline without calcium chloride without magnesium chloride, Invitrogen Corporation, Carlsbad Calif.)). Compound or vehicle was added to blood in 10 μl aliquots as triplicates, omitting the outside wells to minimize possible edge effects. The final highest concentration of each compound in the assay ranged from 3 to 0.3 μM. Final DMSO concentration in the assay was 0.1%. The plate containing the samples was gently vortexed to mix and replaced in the incubator. LPS stock (E. coli serotype 0111:B4, Sigma-Aldrich), stored in aliquots of 100 μg/ml in RPMI at −20° C., was diluted […] in RPMI to make a working stock solution. After 60 minutes of incubation, 10 μl of the prepared LPS working stock was added to the blood to a final concentration of 100 ng/ml. Wells to be used as negative control received RPMI media with no LPS. The plate was again gently vortexed and the plates incubated overnight for 22 hours. Following incubation, the blood was centrifuged at 1500×g for 5 minutes and the plasma removed to either freeze at −20° C. or assay for cytokine release.
IL-1β, IFNγ and TNFα protein levels were measured using Meso Scale assay kits (Meso Scale Discovery, Gaithersburg, Md., U.S.A.). Reagents were allowed to come to room temperature. Meso Scale plates were blocked with 150 μl of Meso Scale Block B diluent, gently shaking at room temperature for 60 minutes. Plates were washed 3× with wash buffer (PBS, Invitrogen Corporation, with 0.05% Tween-20, Sigma-Aldrich). Calibrators for standard curves were prepared in human plasma/serum assay diluent as a 1/5 serial dilution to achieve final concentrations ranging from 50000 pg/ml to 3.2 pg/ml. Samples were added at 10 to 20 μl/well and calibrators were added at 20 μl/well then incubated at room temperature with gentle shaking for 2 hours. Plates were again washed 3× with wash buffer. Detection antibody was diluted in human plasma/serum antibody diluent to 1 μg/ml and added to the plate at 20 μl/well. Plates were incubated as before for 2 hours and washed again. Read Buffer T (4×) was diluted 1:1 with mqH20 to 2× concentration and 150 μl added to each well. Plates were read on the SECTOR Imager 6000 (Meso Scale Discovery) to generate raw signal values.
Individual sample signal values were compared to positive and negative controls (vehicle treated blood with LPS and vehicle treated blood without LPS, respectively) to generate % inhibition. Triplicate values were averaged for each donor. The values for three or four donors were averaged and graphed using 4-parameter fit curves in the LabStats plug-in for the Microsoft Excel application.

Data set [3] has as its system osteocalcin. The data set is described as follows: 28-day mouse side-effect model, serum osteocalcin suppression. Format: in vivo. The note with it: oral gavage 28 days.

Regarding `Cc1ncccc1NC(=O)c1ccc2c(c1)C(=O)C[C@@H]1C[C@@](O)(c3ccccc3)[C@](C)(O)C[C@@]21Cc1ccccc1` [Example 1, (4bR,6R,7R,8aS)-4b-benzyl-6,7-dihydroxy-6-methyl-N-(2-methylpyridin-3-yl)-10-oxo-7-phenyl-4b,5,6,7,8,8a,9,10-octahydrophenanthrene-2-carboxamide], the median effective dose (ED50) in data set [1] (816 h, dosing day 34 to 49, read-out: Therapeutic mCIA (ED50 dose)) was determined as 0.3 mg/kg. The “Therapeutic mCIA (ED80 dose)” value in data set [1] (dosing day 34 to 49) was determined as 1.61. In addition, the inhibition at 0.000137174 µM in data set [2] (Homo sapiens, 0.137174 nM, mean of donors) was -3.93%. Besides, the inhibition at 0.000411523 µM in data set [2] (Homo sapiens, 0.411523 nM, mean of donors) was found to be 15.6%. In data set [2] (Homo sapiens, 1.234568 nM, mean of donors), the inhibition at 0.00123457 µM is 18.4%. Further, in data set [2] (Homo sapiens, 3.703704 nM, mean of donors), the inhibition at 0.0037037 µM is 26.9%. Also, in data set [2] (Homo sapiens, 11.11111 nM, mean of donors), the inhibition at 0.0111111 µM was 51%. Moreover, in data set [2] (Homo sapiens, 33.33333 nM, mean of donors), the inhibition at 0.0333333 µM is 66.2%. For the same compound, the inhibition at 0.1 µM in data set [2] (Homo sapiens, 100 nM, mean of donors) is 72.5%. The inhibition at 0.3 µM in data set [2] (Homo sapiens, 300 nM, mean of donors) worked out at 72.9%. The “level of inhibition of IFN” value in data set [2] (ex vivo LPS-stimulated human whole blood, extent of inhibition, concentration not given) came to 73%. For the same compound, the ED50 at 28 days in data set [3] (female, Swiss Webster, read-out: Osteocalcin Suppression (ED50 dose)) worked out at 0.081 mg/kg. Further, the “Osteocalcin Suppression (ED80 dose)” value in data set [3] stood at 0.35.
